The test system of one test is NHDF. Description: Cytotoxicity studies (MTS), normal fibroblasts. As to conditions: 72 h, normal human fibroblasts, read-out: Antiproliferative activity IC50 NHDF. It counts as cell-based. The source says: In contrast, the other cell lines studied represent common cancers found in the human population. Nevertheless, these cell lines are characterised by a different landscape of kinase expression, as reported in[36]. In chronic leukaemia cells, an aberration of the Philadelphia chromosome is common in which a fragment of chromosome 9 is displaced to chromosome 22, leading to the formation of the oncogenic protein BCR-ABL. The altered structure of the protein leads to abnormal activity that promotes excessive growth and differentiation of cells even in the absence of growth factors, as well as inhibition of apoptosis and formation of metastases. Moreover, the status of the TP53 gene in leukaemia is not insignificant. Mutations of the TP53 gene occur in more than 50% of all cancers, leading to increased metastasis and an overall poor prognosis[38]^,[39]. The p53 protein encoded by this gene plays a pivotal role in controlling cell division or cell fate when damage is detected. […] Therefore, interaction between the signalling network of the BCR-ABL pathway and p53 often results in an impairment of p53 function and survival[43]^,[44]. […] Selectivity studies were performed on normal human fibroblast – NHDF cell line.
M. Rusin from the Maria Sklodowska-Curie Memorial Cancer Centre and Institute of Oncology in Gliwice, Poland. […] G. Kramer-Marek from the Institute of Cancer Research in London, United Kingdom. The human suspension chronic myeloids leukaemia cell line K562 and the pancreatic ductal adenocarcinoma cell line PANC-1 were purchased from Merck. The normal human dermal fibroblasts cell line NHDF were obtained from PromoCell. All adherent cancer cell lines were cultured in Dulbecco’s Modified Eagle’s medium (DMEM) supplemented with 10% heat-inactivated foetal bovine serum – FBS (all from Merck). […] Each complete medium contained a mixture of two antibiotics - penicillin and streptomycin (1% v/v; Gibco). Cell lines were cultured at 37 °C with 5% CO2 humidified atmosphere.
The assay was carried out after 72 h of incubation with different concentrations of the tested compounds. Then DMEM without phenol red was added to each well with CellTiter 96®AQueous One Solution-MTS (Promega) solution and incubated for 1 h or 3 h (PANC-1) at 37 °C. The optical densities of the samples were measured at 490 nm using a multi-plate reader (Synergy 4, BioTek). […] Each compound was tested in triplicate in a single experiment and each experiment was performed three or four times.

Another test deals with T1, BRK (Homo sapiens, UniProt Q13882).
T1 construct: purchased Promega
T1 sequence (Q13882 whole entry): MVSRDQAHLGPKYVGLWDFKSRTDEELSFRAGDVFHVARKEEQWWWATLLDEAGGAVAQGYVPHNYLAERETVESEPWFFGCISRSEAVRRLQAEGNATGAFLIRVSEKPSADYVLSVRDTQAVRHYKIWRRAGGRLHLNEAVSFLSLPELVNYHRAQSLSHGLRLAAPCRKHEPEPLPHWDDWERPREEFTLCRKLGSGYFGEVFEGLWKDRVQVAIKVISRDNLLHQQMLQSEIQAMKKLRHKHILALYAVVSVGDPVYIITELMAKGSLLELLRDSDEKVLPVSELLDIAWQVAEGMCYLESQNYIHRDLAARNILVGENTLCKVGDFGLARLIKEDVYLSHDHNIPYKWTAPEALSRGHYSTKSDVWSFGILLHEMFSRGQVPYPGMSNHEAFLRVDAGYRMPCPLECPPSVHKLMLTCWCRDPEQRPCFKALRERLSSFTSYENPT
Briefly: Tyrosine kinase assay (Kinase Selectivity System TK-2, ADP-Glo). As to conditions: 1 h incubation, mean ± SD of four experiments. Type of test: biochemical. For orientation: In ADP-Glo the light output rises with the ADP produced.

The next test concerns K562 cells. Description: Cell cycle assay (Muse Cell-Cycle Kit, flow cytometry). The following applies: 16 h; for Population of cells in the G0/G1 phase: untreated 42.56%; for Fraction of cells in the G2/M phase: control 28.68%. Type of test: cell-based, human. On the procedure: The interesting inhibitory potential of ABL kinase and the high antiproliferative activity of several styrylquinazoline derivatives prompted us to further investigate their mechanism of action.
K562 cells were seeded in 3 cm Petri dishes (Nunc) at a density of 150,000 cells per well and incubated under standard conditions at 37 °C for 24 h. […] After 16 h of treatment, assays were performed using a Muse Cell-Cycle Kit (Millipore) according to the supplier’s instructions. Briefly, leukaemia cells were collected, washed in cold PBS, and centrifuged. Cells were then fixed in ice-cold 70% ethanol and stored at −20 °C overnight. The next day, leukaemia cells were washed with cold PBS, centrifuged and resuspended in Muse™ Cell Cycle Reagent. Samples were incubated for 30 min at room temperature in the dark. After staining, the levels of cellular subpopulations in each cell cycle phase were determined using a Muse Cell Analyser (Millipore). Experiments were performed at least four times.

For another test, the target named is T2, Src (Homo sapiens, UniProt P12931).
T2 construct: purchased Promega
T2 sequence (P12931 whole entry): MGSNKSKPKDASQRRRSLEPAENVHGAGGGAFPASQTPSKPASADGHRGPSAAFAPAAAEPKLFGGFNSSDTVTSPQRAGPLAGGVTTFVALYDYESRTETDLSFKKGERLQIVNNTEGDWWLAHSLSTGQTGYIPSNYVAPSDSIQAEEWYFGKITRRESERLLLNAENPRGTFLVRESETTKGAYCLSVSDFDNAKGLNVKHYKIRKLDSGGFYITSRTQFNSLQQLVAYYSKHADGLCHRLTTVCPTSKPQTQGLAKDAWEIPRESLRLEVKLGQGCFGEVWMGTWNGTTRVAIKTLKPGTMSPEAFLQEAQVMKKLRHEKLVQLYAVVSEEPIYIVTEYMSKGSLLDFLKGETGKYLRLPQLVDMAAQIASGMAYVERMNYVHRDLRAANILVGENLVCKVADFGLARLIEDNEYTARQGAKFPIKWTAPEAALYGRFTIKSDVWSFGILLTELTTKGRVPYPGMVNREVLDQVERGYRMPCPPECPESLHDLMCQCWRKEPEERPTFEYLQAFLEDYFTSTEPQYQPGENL
Description: Tyrosine kinase assay (Kinase Selectivity System TK-2, ADP-Glo). It counts as biochemical. As to conditions: 1 h incubation, mean ± SD of four experiments.

The next test has as its target T3, Fyn A (Homo sapiens, UniProt P06241).
T3 construct: purchased Promega
Described as above. It counts as biochemical. As to conditions: 1 h incubation, mean ± SD of four experiments. The method, boiled down: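 Full-length, unphosphorylated non-receptor tyrosine kinases with regulatory domains, supplemented with ATP and incubated 1 h with peptide substrate. ADP formation read by ADP-Glo luminescence. Values are percent kinase inhibition from at least four experiments.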

T3 sequence (P06241 whole entry): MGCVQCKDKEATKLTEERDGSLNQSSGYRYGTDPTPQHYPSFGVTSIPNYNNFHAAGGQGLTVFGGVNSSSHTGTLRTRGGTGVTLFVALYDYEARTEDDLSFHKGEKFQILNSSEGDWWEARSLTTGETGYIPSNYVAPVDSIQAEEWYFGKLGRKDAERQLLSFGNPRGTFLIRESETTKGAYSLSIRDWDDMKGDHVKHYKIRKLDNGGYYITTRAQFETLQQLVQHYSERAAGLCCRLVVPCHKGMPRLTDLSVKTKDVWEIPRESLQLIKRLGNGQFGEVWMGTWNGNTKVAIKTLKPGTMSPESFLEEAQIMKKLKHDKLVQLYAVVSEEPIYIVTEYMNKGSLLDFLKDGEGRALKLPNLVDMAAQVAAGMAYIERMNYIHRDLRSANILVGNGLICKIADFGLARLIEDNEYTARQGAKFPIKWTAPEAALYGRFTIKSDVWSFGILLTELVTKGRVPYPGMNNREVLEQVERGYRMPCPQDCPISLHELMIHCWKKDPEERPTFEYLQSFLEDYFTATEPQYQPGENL

For `COc1ccccc1/C=C/c1nc(Sc2ccccc2Cl)c2ccccc2n1` [IS1, 2-[(E)-2–(2-methoxyphenyl)ethenyl]-4–(2-chlorophenylthio)quinazoline], the IC50 in the test with NHDF is > 25 µM. Moreover, the “Inhibition of tyrosine kinase activity [%] BRK” value on BRK (0.5 μM) is recorded as 51.27 ± 9.04%. The inhibition at 0.5 µM against BRK was 51%; on Src it was 79%; against Fyn A it was 90.4 ± 9.9%. The “Cell cycle arrest (phase)” value in the test on K562 cells is given as “cell cycle arrest in G0/G1 phase”. For the same compound, the “Population of cells in the G0/G1 phase” value in the test on K562 cells (concentration not given) came out at 50.85%. In addition, on Src (0.5 μM), the “Inhibition of tyrosine kinase activity [%] Src” value is recorded as 79.52 ± 9.56%.
On to `COc1ccccc1/C=C/c1nc(Sc2cccc(O)c2)c2ccccc2n1` [IS8, 3-{2-[(E)-2–(2-methoxyphenyl)ethenyl]quinazolin-4-ylthio}phenol], for which, in the test with NHDF, the IC50 is > 25 µM. Also, the inhibition at 0.5 µM was determined as 15.8 ± 2.25% at BRK, 5.12 ± 0.96% against Src and 0% against Fyn A. The “Fraction of cells in the G2/M phase” value in the test on K562 cells (12 µM) stood at 39.38%. For the same compound, the “Cell cycle arrest (phase)” value in the test with K562 cells is “arrested the cells in G2/M phase”.
For `COc1ccccc1/C=C/c1nc(Sc2ccc3c(c2)OCO3)c2ccccc2n1` [IS10, 5-{2-[(E)-2–(2-methoxyphenyl)ethenyl]quinazolin-4-ylthio}-2H-1,3-benzodioxole], the IC50 in the test with NHDF was > 25 µM. The inhibition at 0.5 µM was 25 ± 8.51% on BRK, 0% on Src and 21.5 ± 5.71% on Fyn A. For the same compound, in the test with K562 cells (concentration not given, control 23.66%), the “Population of cells in the S phase” value is on record as 12.85%. Further, the “Fraction of cells in the G2/M phase” value in the test on K562 cells (concentration not given) turned out to be 46.35%. For the same compound, the “Population of cells in the G0/G1 phase” value in the test with K562 cells (concentration not given) was 33.00%.
With `NC(=O)c1cccc(-c2cc(Nc3ccc(OC(F)(F)F)cc3)ncn2)c1` [GNF-2, reference compound], in the test on NHDF, the IC50 was > 25 µM. The inhibition at 0.5 µM against BRK, at Src and on Fyn A was 0% each time. Besides, in the test on K562 cells, the “Cell cycle arrest (phase)” value is on record as “inhibition of G0/G1 phase”.

As a reminder, the IC50 is the concentration that inhibits the measured activity by half. In general, inhibition refers to the change of the read-out against control, counted positive when it falls. The low end stands for little suppression, the high end for strong suppression.

For the origin of these results see publication PMC10120462, “Styrylquinazoline derivatives as ABL inhibitors selective for different DFG orientations” (Journal of Enzyme Inhibition and Medicinal Chemistry, 2023).
